According to patent US8440666B2, “Pyridazinone compounds and P2X7 receptor inhibitors” (Nissan Chemical Industries, Ltd., priority 2007, dated 2013):

Columns and labels:
[1] = target: T1, Human P2X7 (hP2X7) receptor (Homo sapiens, UniProt Q99572); experiment: Dye assay: BzATP-induced Yo-Pro-1 uptake in HEK293 cells stably expressing hP2X7; assay type: cell-based; details: 90 min incubation
T1 construct: myc-His (from the pcDNA3.1/myc-HisA vector); expressed in transfected cells
T1 sequence (Q99572 1-595): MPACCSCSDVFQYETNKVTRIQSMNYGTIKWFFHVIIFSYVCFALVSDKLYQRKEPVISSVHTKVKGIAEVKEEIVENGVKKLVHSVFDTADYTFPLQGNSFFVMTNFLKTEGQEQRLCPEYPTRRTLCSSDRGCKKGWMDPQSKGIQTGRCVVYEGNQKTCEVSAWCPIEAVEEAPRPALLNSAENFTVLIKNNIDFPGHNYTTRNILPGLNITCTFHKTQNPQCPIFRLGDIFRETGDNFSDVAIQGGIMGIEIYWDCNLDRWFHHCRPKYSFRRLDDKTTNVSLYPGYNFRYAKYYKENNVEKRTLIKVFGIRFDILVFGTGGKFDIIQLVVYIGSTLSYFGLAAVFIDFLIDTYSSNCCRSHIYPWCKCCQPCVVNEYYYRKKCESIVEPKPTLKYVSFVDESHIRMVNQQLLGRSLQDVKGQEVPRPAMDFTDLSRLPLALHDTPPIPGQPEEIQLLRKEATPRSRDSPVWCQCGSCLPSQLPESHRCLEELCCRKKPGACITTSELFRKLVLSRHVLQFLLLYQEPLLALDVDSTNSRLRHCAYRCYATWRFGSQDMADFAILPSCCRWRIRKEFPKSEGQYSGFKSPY
How it was run: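 HEK293 cells stably expressing cloned human P2X7 (595 aa) were preincubated 30 min with compound, then given 2 μM Yo-Pro-1 and 0.1 mM BzATP (final) for 90 min. Dye uptake read by fluorescence (ex 485/em 535 nm); IC50 derived from % inhibition versus log concentration.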

[2] = system: IL-1β in supernatants of peripheral blood mononuclear cells; experiment: IL-1β assay: BzATP- or ATP-induced IL-1β release from LPS-treated human peripheral blood mononuclear cells; assay type: cell-based; details: 2 h; IL-1β in supernatants of LPS-treated human PBMC; BzATP (1 mM) or ATP (5 mM), 120 min
Description: Human whole blood from healthy volunteers was diluted with equal volume of saline and peripheral blood mononuclear cells were collected by using a Limphoprep tube (Daiichi Pure Chemicals), washed with physiological saline and seeded onto a 96-well plate with a medium containing 1-10 ng/mL LPS (SIGMA). 30 minutes later, the cells were treated with varying concentrations of various compounds and incubated for 30 minutes. Then, the cells were treated with BzATP (final concentration 1 mM) or ATP (final concentration 5 mM) and incubated for 120 minutes. The cells were centrifugated to collect supernatents, and the concentration of IL-1β in supernatants were determined by IL-1β HTRF kit (CIS biointernational). The % inhibition rates were calculated and plotted against the logarithms of the concentrations to determine IC50.

[3] = BzATP (0.1 mM)-induced Yo-Pro-1 uptake, compounds 30 min pre-treatment
[4] = BzATP 0.1 mM, Yo-Pro-1 2 μM, 30 min pre-treatment

Work on `CC(NC(=O)Cn1ncc(N[C@@H]2C[C@@H]3C[C@H]([C@H]2C)C3(C)C)c(Br)c1=O)c1ccncc1` (some centres unmarked) [compound 39] yielded an IC50 [1, 3] of 6.3 nM and an IC50 [2] of 19 nM.

In the case of `C[C@@H]1[C@H]2C[C@@H](C[C@H]1Nc1cnn(CC(=O)NCc3ccncc3S(C)(=O)=O)c(=O)c1Cl)C2(C)C` [compound 442], the IC50 [1, 4] is reported as 1.7 nM and the IC50 [2] is reported as 27 nM.

Work on `CCC(NC(=O)Cn1ncc(N[C@@H]2C[C@@H]3C[C@@H](C3(C)C)[C@]2(C)O)c(Br)c1=O)c1ccncc1` (some centres unmarked) [compound 358] yielded an IC50 [1, 3] of 10 nM and an IC50 [2] of 38 nM.

`O=C(Cn1ncc(NC2C3CCCC2CCC3)c(Br)c1=O)NCc1ccncc1` (centres unmarked) [compound 325] was tested, and the IC50 [1, 3] was 8.9 nM and the IC50 [2] was 40 nM.

`CC(NC(=O)Cn1ncc(N[C@@H]2C[C@@H]3C[C@H]([C@H]2C)C3(C)C)c(Cl)c1=O)c1ccncc1Cl` (some centres unmarked) [compound 264] showed an IC50 [1, 3] of 1.4 nM and an IC50 [2] of 3.3 nM.

With `Cc1cnncc1CNC(=O)Cn1ncc(N[C@@H]2C[C@@H]3C[C@H]([C@H]2C)C3(C)C)c(Cl)c1=O` [compound 432] the IC50 [1, 4] was 2.1 nM and the IC50 [2] was 17 nM.

With `CCN(CC)c1ccc(C(=O)Cn2ncc(N[C@@H]3C[C@@H]4C[C@H]([C@H]3C)C4(C)C)c(Br)c2=O)cc1` [compound 84] the IC50 [1, 3] was 4.1 nM and the IC50 [2] was 82 nM.
